Laboratory results as given in the supplement of paper PMC10307832.

Experiments:
Assay in all cases: relative viability (nuclei count vs DMSO), 5 days (fraction); higher = more cells survive
NCI-H1792 = system: NCI-H1792
Method in brief: (§1)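 Relative viability is defined as nuclei in treated wells over nuclei in vehicle wells. Duplicate plates were run and medians reported. Lung cancer cell lines in 1536-well plates were dosed by pin tool one day after seeding, with one drug or with a fixed anchor-drug dose plus five library-drug doses (not always all listed) in √10 steps, and nuclei were counted after 5 days.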

LCLC-103H = system: LCLC-103H
Method in brief: as §1

201T = system: 201T
Method in brief: as §1

RERF-LC-KJ = system: RERF-LC-KJ
Method in brief: as §1

NCI-H23 = system: NCI-H23
Method in brief: as §1

NCI-H322M = system: NCI-H322M
Method in brief: as §1

HCC-15 = system: HCC-15
Method in brief: as §1

LK-2 = system: LK-2
Method in brief: as §1

LXF-289 = system: LXF-289
Method in brief: as §1

CAL-12T = system: CAL-12T
Method in brief: as §1

COR-L 105 = system: COR-L 105
Method in brief: as §1

H3255 = system: H3255
Method in brief: as §1

BEN = system: BEN
Method in brief: as §1

NCI-H2228 = system: NCI-H2228
Method in brief: as §1

HARA = system: HARA
Method in brief: as §1

LC-2-ad = system: LC-2-ad
Method in brief: as §1

HCC-827 = system: HCC-827
Method in brief: as §1

NCI-H1437 = system: NCI-H1437
Method in brief: as §1

NCI-H1651 = system: NCI-H1651
Method in brief: as §1

NCI-H2085 = system: NCI-H2085
Method in brief: as §1

UMC-11 = system: UMC-11
Method in brief: as §1

LU99A = system: LU99A
Method in brief: as §1

NCI-H2405 = system: NCI-H2405
Method in brief: as §1

`O=c1[nH]c2ccccc2n1C1CCN(CCCC(c2ccc(F)cc2)c2ccc(F)cc2)CC1` [Pimozide] + O=C(c1cc(Cc2n[nH]c(=O)c3ccccc23)ccc1F)N1CCN(C(=O)C2CC2)CC1 [Olaparib] (partner 8 µM) gave a relative viability (NCI-H1792; first compound 0.08 µM) of 0.298, a relative viability (NCI-H1792; first compound 0.253 µM) of 0.452 and a relative viability (NCI-H1792; first compound 0.8 µM) of 0.452. For the same compound, the relative viability (NCI-H1792; first compound 2.53 µM) was 0.406, the relative viability (NCI-H1792; first compound 8 µM) was 0.375 and the relative viability (LCLC-103H; first compound 0.08 µM) was 0.782. For the same compound, the relative viability (LCLC-103H; first compound 0.253 µM) was 0.721, the relative viability (LCLC-103H; first compound 0.8 µM) was 0.722 and the relative viability (LCLC-103H; first compound 2.53 µM) was 0.695. The relative viability (LCLC-103H; first compound 8 µM) was 0.72, the relative viability (201T; first compound 0.08 µM) was 0.876 and the relative viability (201T; first compound 0.253 µM) was 0.836. For the same compound, the relative viability (201T; first compound 0.8 µM) was 0.807, the relative viability (201T; first compound 2.53 µM) was 0.821 and the relative viability (201T; first compound 8 µM) was 0.719. The relative viability (RERF-LC-KJ; first compound 0.08 µM) was 0.873, the relative viability (RERF-LC-KJ; first compound 0.253 µM) was 0.823 and the relative viability (RERF-LC-KJ; first compound 0.8 µM) was 0.838. It also gave a relative viability (RERF-LC-KJ; first compound 2.53 µM) of 0.659, a relative viability (RERF-LC-KJ; first compound 8 µM) of 0.648 and a relative viability (NCI-H23; first compound 0.08 µM) of 0.293. The relative viability (NCI-H23; first compound 0.253 µM) was 0.326, the relative viability (NCI-H23; first compound 0.8 µM) was 0.325 and the relative viability (NCI-H23; first compound 2.53 µM) was 0.285. It also gave a relative viability (NCI-H23; first compound 8 µM) of 0.275, a relative viability (NCI-H322M; first compound 0.08 µM) of 0.76 and a relative viability (NCI-H322M; first compound 0.253 µM) of 0.732. The relative viability (NCI-H322M; first compound 0.8 µM) was 0.684, the relative viability (NCI-H322M; first compound 2.53 µM) was 0.833 and the relative viability (NCI-H322M; first compound 8 µM) was 0.795. The relative viability (HCC-15; first compound 0.08 µM) was 0.72, the relative viability (HCC-15; first compound 0.253 µM) was 0.672 and the relative viability (HCC-15; first compound 0.8 µM) was 0.717. For the same compound, the relative viability (HCC-15; first compound 2.53 µM) was 0.712, the relative viability (HCC-15; first compound 8 µM) was 0.738 and the relative viability (LK-2; first compound 0.08 µM) was 0.643. For the same compound, the relative viability (LK-2; first compound 0.253 µM) was 0.687, the relative viability (LK-2; first compound 0.8 µM) was 0.765 and the relative viability (LK-2; first compound 2.53 µM) was 0.693. It also gave a relative viability (LK-2; first compound 8 µM) of 0.691, a relative viability (LXF-289; first compound 0.08 µM) of 1.09 and a relative viability (LXF-289; first compound 0.253 µM) of 1.04. It also gave a relative viability (LXF-289; first compound 0.8 µM) of 1.01, a relative viability (LXF-289; first compound 2.53 µM) of 0.937 and a relative viability (LXF-289; first compound 8 µM) of 1.03. For the same compound, the relative viability (CAL-12T; first compound 0.08 µM) was 0.672, the relative viability (CAL-12T; first compound 0.253 µM) was 0.687 and the relative viability (CAL-12T; first compound 0.8 µM) was 0.709. The relative viability (CAL-12T; first compound 2.53 µM) was 0.698, the relative viability (CAL-12T; first compound 8 µM) was 0.623 and the relative viability (COR-L 105; first compound 0.08 µM) was 0.664. It also gave a relative viability (COR-L 105; first compound 0.253 µM) of 0.659, a relative viability (COR-L 105; first compound 0.8 µM) of 0.83 and a relative viability (COR-L 105; first compound 2.53 µM) of 0.696. The relative viability (COR-L 105; first compound 8 µM) was 0.664, the relative viability (H3255; first compound 0.253 µM) was 0.511 and the relative viability (H3255; first compound 0.8 µM) was 0.504. The relative viability (H3255; first compound 2.53 µM) was 0.523, the relative viability (H3255; first compound 8 µM) was 0.59 and the relative viability (BEN; first compound 0.08 µM) was 1.15. It also gave a relative viability (BEN; first compound 0.253 µM) of 1.15, a relative viability (BEN; first compound 0.8 µM) of 1.1 and a relative viability (BEN; first compound 2.53 µM) of 1.07. For the same compound, the relative viability (BEN; first compound 8 µM) was 1.29, the relative viability (NCI-H2228; first compound 0.08 µM) was 0.759 and the relative viability (NCI-H2228; first compound 0.253 µM) was 0.699. For the same compound, the relative viability (NCI-H2228; first compound 0.8 µM) was 0.555, the relative viability (NCI-H2228; first compound 2.53 µM) was 0.45 and the relative viability (NCI-H2228; first compound 8 µM) was 0.344. For the same compound, the relative viability (HARA; first compound 0.08 µM) was 0.785, the relative viability (HARA; first compound 0.253 µM) was 0.764 and the relative viability (HARA; first compound 0.8 µM) was 0.746. It also gave a relative viability (HARA; first compound 2.53 µM) of 0.74, a relative viability (HARA; first compound 8 µM) of 0.749 and a relative viability (LC-2-ad; first compound 0.08 µM) of 0.68. The relative viability (LC-2-ad; first compound 0.253 µM) was 0.731, the relative viability (LC-2-ad; first compound 0.8 µM) was 0.69 and the relative viability (LC-2-ad; first compound 2.53 µM) was 0.668. For the same compound, the relative viability (LC-2-ad; first compound 8 µM) was 0.673, the relative viability (HCC-827; first compound 0.253 µM) was 0.627 and the relative viability (HCC-827; first compound 0.8 µM) was 0.7. It also gave a relative viability (HCC-827; first compound 2.53 µM) of 0.747, a relative viability (HCC-827; first compound 8 µM) of 0.678 and a relative viability (NCI-H1437; first compound 0.08 µM) of 0.615. For the same compound, the relative viability (NCI-H1437; first compound 0.253 µM) was 0.616, the relative viability (NCI-H1437; first compound 0.8 µM) was 0.6 and the relative viability (NCI-H1437; first compound 2.53 µM) was 0.573. The relative viability (NCI-H1437; first compound 8 µM) was 0.463, the relative viability (NCI-H1651; first compound 0.08 µM) was 0.203 and the relative viability (NCI-H1651; first compound 0.253 µM) was 0.189. For the same compound, the relative viability (NCI-H1651; first compound 0.8 µM) was 0.177, the relative viability (NCI-H1651; first compound 2.53 µM) was 0.182 and the relative viability (NCI-H1651; first compound 8 µM) was 0.187. For the same compound, the relative viability (NCI-H2085; first compound 0.08 µM) was 0.691, the relative viability (NCI-H2085; first compound 0.253 µM) was 0.82 and the relative viability (NCI-H2085; first compound 0.8 µM) was 0.767. It also gave a relative viability (NCI-H2085; first compound 2.53 µM) of 0.783, a relative viability (NCI-H2085; first compound 8 µM) of 0.796 and a relative viability (UMC-11; first compound 0.08 µM) of 0.394. The relative viability (UMC-11; first compound 0.253 µM) was 0.356, the relative viability (UMC-11; first compound 0.8 µM) was 0.417 and the relative viability (UMC-11; first compound 2.53 µM) was 0.371. It also gave a relative viability (UMC-11; first compound 8 µM) of 0.466, a relative viability (LU99A; first compound 0.08 µM) of 0.251 and a relative viability (LU99A; first compound 0.8 µM) of 0.26. The relative viability (LU99A; first compound 2.53 µM) was 0.297, the relative viability (LU99A; first compound 8 µM) was 0.254 and the relative viability (NCI-H2405; first compound 0.08 µM) was 0.833. The relative viability (NCI-H2405; first compound 0.253 µM) was 0.826, the relative viability (NCI-H2405; first compound 0.8 µM) was 0.822 and the relative viability (NCI-H2405; first compound 2.53 µM) was 0.722. The relative viability (NCI-H2405; first compound 8 µM) was 0.693.
